Measured values from ChEMBL document CHEMBL1914288, “Design and synthesis of biotinylated DHMEQ for direct identification of its target NF-κB components” (Bioorg Med Chem Lett, 2011).
Blank lines part the entries; values can stand above or below the molecule they belong to. The source made the active and inactive calls. The calls are words filed in the database; no cut-off is given here.

Key:
RAW264.7 [1] = assay: Inhibition of LPS-induced nitric oxide production in mouse RAW264.7 cells at 100 ug/mL preincubated for 1 hr prior LPS stimulation measured after 24 hrs by Griess reaction relative to (-)-DHMEQ; format: functional, cell-based
[2] = biological target: Transcription factor p65 (Homo sapiens) (UniProt Q04206); assay: Binding affinity to recombinant NF-kappaB transcription factor p65 subunit at 4 equiv mol concentration after 1 hr by MALDI-TOF MS analysis
[3] = tested on: Transcription factor p65 (Homo sapiens), Q04206 [C38S]; assay: Binding affinity to recombinant NF-kappaB transcription factor p65 subunit C38S mutant at 4 equiv mol concentration after 1 hr by MALDI-TOF MS analysis
[4] = Stability of the compound in DMSO for 4 weeks; format: physicochemical; conditions: 672 h
RAW264.7 [5] = assay: Inhibition of LPS-induced nitric oxide production in mouse RAW264.7 cells preincubated for 1 hr prior LPS stimulation measured after 24 hrs by Griess reaction; format: functional, cell-based
RAW264.7 [6] = assay: Cytotoxicity against mouse RAW264.7 cells at 10 ug/mL after 24 hrs by MTT assay; format: cell-based; conditions: raw264.7, 24 h
RAW264.7 [7] = assay: Inhibition of NF-kappaB activation in LPS-stimulated mouse RAW264.7 cells assessed as DNA binding using 32P-labeled oligonucleotide with the high affinity site 5'-AGTTGAGGGGACTTTCCCAGGC-3' at 3 ug/mL after 30 mins by EMSA; format: cell-based
[8] = Stability of the compound under neutral conditions; format: physicochemical

Chain of Transcription factor p65 (Homo sapiens) (Q04206 whole entry): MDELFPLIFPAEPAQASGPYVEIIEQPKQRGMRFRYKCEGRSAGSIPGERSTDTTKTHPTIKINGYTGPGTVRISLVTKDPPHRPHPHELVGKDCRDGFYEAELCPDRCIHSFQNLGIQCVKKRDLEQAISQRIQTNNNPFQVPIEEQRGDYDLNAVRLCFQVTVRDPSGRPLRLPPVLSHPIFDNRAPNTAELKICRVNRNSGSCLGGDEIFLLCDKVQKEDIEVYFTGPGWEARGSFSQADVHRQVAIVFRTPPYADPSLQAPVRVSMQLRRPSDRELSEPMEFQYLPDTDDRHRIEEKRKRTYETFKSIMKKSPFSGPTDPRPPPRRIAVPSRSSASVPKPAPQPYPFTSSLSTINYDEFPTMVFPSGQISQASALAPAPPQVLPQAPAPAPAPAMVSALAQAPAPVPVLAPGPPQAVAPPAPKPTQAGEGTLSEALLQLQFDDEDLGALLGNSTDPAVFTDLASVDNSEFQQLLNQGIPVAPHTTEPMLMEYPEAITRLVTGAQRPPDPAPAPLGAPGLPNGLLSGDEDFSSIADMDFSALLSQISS
Chain of Transcription factor p65 (Homo sapiens), Q04206 [C38S] (Q04206 whole entry C38S): as the sequence (Q04206 whole entry) above, with C38S counted along it

Activity [2]: Active
Activity [3]: inactive
Stability [4]: Stable
SMILES: O=C(/C=C/COc1ccccc1C(=O)NC1=CC(=O)[C@H]2O[C@H]2[C@H]1O)NCCOCCOCCNC(=O)CCCC[C@@H]1SC[C@@H]2NC(=O)N[C@@H]21 (mixture of isomers)
inhibition (RAW264.7 [1]): inactive

SMILES: C=CCOc1ccccc1C(=O)NC1=CC(=O)[C@H]2O[C@H]2[C@H]1O (racemic)
inhibition (RAW264.7 [5]): Dose-dependent effect
Activity (RAW264.7 [6]): Non-toxic
inhibition (RAW264.7 [7]): Active

Stability [8]: Stable
SMILES: O=C(NC1=CC(=O)[C@H]2O[C@H]2[C@H]1O)c1ccccc1O [DEHYDROXYMETHYLEPOXYQUINOMICIN]
